In data set [1] the test system is APP IRE RNA (RNA, mRNA element) GGUGGCGGCGCGGGCAGAGCAAGGACGCGGCGGAU
As to the kind of experiment: microscale thermophoresis, labelled IRP1. As to conditions: 150 mM NaCl; binds IRP1/RNA complex, RNA alone not tested; 2 nM IRP1, 600 nM RNA; 25 mM Tris pH 7.4, 0.1% Prionex. On the technique in general: In MST a laser heats a spot of the sample, and binding alters the fluorescence response.

The test system of data set [2] is H-ferritin IRE RNA (RNA, mRNA element) GGGGUUUCCUGCUUCAACAGUGCUUGGACGGAACC
As to the kind of experiment: microscale thermophoresis, labelled IRP1. The note with it: 150 mM NaCl; IRP1/RNA complex, RNA alone not tested; 2 nM IRP1, 250 nM RNA; same buffer; Posiphen to 50 µM.

For data set [3], the target named is T1, IRP1 (iron regulatory protein 1) (UniProt P21399 1-889).
T1 sequence: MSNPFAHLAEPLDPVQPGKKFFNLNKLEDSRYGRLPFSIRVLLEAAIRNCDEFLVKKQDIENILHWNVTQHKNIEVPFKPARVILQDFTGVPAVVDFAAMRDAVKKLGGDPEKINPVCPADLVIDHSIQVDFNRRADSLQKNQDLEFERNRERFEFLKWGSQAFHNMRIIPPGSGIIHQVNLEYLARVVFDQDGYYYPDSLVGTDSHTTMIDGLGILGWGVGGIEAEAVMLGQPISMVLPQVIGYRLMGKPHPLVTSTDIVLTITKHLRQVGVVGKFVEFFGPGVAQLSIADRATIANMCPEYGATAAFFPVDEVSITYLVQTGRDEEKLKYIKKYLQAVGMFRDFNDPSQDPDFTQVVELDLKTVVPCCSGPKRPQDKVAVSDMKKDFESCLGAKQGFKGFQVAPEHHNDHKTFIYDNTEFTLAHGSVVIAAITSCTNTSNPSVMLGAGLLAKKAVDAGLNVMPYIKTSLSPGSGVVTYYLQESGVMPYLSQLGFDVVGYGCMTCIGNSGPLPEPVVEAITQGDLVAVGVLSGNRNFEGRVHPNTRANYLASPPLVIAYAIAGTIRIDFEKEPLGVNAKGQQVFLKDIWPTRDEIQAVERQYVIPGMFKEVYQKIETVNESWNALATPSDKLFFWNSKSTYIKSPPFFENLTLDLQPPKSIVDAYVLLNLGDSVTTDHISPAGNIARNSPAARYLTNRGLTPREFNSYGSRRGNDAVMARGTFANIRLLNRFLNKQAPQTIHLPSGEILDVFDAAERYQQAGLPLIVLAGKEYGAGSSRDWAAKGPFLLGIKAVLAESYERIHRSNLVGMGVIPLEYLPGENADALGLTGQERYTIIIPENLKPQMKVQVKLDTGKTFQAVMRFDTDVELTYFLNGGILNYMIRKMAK
As to the kind of experiment: MST; no Posiphen; MST: 2 nM labeled IRP1, 25 mM Tris pH 7.4, 150 mM NaCl, 0.1% Prionex, 10 min incubation; temperature not stated. The note with it: protein: commercial; hairpin.

`CN1CC[C@]2(C)c3cc(OC(=O)Nc4ccccc4)ccc3N(C)[C@H]12` showed a Kd in data set [1] of 3.2 nM. Besides, the binding result in data set [2] is given as “no”.

Take GGGGUUUCCUGCUUCAACAGUGCUUGGACGGAACC (structured_RNA) [H-ferritin IRE RNA (canonical)]: the Kd in data set [3] is 88.5 nM.

Regarding GGUGGCGGCGCGGGCAGAGCAAGGACGCGGCGGAU (structured_RNA) [APP IRE RNA (atypical)], the Kd in data set [3] was 225 nM.
